pIC50: −log10 of the molar value.
Tests used:
[1] = tested on: HCT-116 (human colorectal carcinoma); assay: MTT cytotoxicity assay, HCT-116; assay type: cell-based; settings: for pIC50: Homo sapiens, HCT-116, 72 h, MTT, 72 h exposure, three independent experiments, read-out: Cytotoxic activity IC50 (95% CI) HCT-116; for Selectivity index HCT-116: ratio of cytotoxicity L929 / HCT-116
Procedure: (§1) In this study, the IC50 was obtained in micromolar concentrations, using the colourimetric MTT (3-(4,5-dimethylthiazol-2-yl)-2,5-diphenyl tetrazolium bromide)) assay, and doxorubicin was used as the positive control. […] The activity against the non-tumoural murine fibroblast cell line L929 was also evaluated in order to study the cytotoxicity behaviour of each compound and to understand their respective relative selectivity. The selectivity index was obtained using the ratio of measured cytotoxicity between the L929 cell line and each of the cancer cell lines, and the results are presented in Table 2.
(§2) The in vitro cytotoxicity activity of the compounds was evaluated by the colorimetric MTT (3-(4,5-dimethylthiazol-2-yl)-2,5-diphenyl tetrazolium bromide)) assay using the following tumor cell lines: HCT-116 (colon carcinoma), PC3 (prostate), SNB-19 (glioblastoma), K-562 (myelogenous leukaemia), HL-60 (human promyelocytic leukaemia), B16 (murine melanoma), A549 (human lung carcinoma), KG1 (human acute myeloid leukaemia), and RAJI (human Burkitt’s lymphoma), which were provided by the National Cancer Institute (Bethesda, MD, USA). The L929 cell line (mouse fibroblast L cells NCTC clone 929) employed in this study as a control cell line was obtained from the American Type Culture Collection (Manassas, VA, USA). The cell lines (Table S4) were maintained in flasks containing RPMI 1640 or DMEM medium supplemented with 10% bovive fetal sérum, 100 U/mL penicillin, and 100 μg/mL streptomycin at 37 °C and in 5% CO2 atmosphere. The compounds tested were dissolved in DMSO. Doxorubicin served as the positive control. Cell treatments were performed with three replicates and the cells were mycoplasma free. After 72 h incubation, 100 μL of MTT solution (0.5 mg/mL) was added to each well, and the cells were incubated for 3 h. The supernatant was removed and 100 μL of DMSO was added and the absorbance at 595 nm was measured using Victor Nivo Multimode plate reader (PerkinElmer, Waltham, MA, USA). The absorbances obtained were used to calculate the IC50 values by nonlinear regression employing appropriate statistical software.
(§3) The in vitro cytotoxicity activity of compounds was evaluated by the colorimetric MTT (3-(4,5-dimethylthiazol-2-yl)-2,5-diphenyl tetrazolium bromide)) assay using tumor cell lines: HCT-116 (colon carcinoma), PC3 (prostate), SNB-19 (glioblastoma), K-562 (myelogenous leukaemia), HL-60 (human promyelocytic leukaemia), B16 (murine melanoma), A549 (human lung carcinoma), KG1 (human acute myeloid leukaemia) and RAJI (human Burkitt's lymphoma), which were provided by the National Cancer Institute (Bethesda, MD, USA). The L929 cell line (mouse fibroblast L cells NCTC clone 929) employed in this study as a control cell line was obtained from the American Type Culture […]
(§4) Collection (Manassas, VA, USA). Cell lines (Table 01) were maintained in flasks containing RPMI 1640 or DMEM medium supplemented with 10% bovive fetal sérum, 100 U/mL penicillin, and 100 μg/mL streptomycin at 37 °C and 5% CO2 atmosphere.
(§5) Compounds tested were dissolved in DMSO. Doxorubicin served as positive control. Cell treatments were performed with three replicates and cells were mycoplasma-free. After 72 h incubation, 100 μL of MTT solution (0.5 mg/mL) was added to each well, and cells were incubated for 3 h. The supernatant was removed and 100 μL of DMSO was added and the absorbance at 595 nm was measured using Victor Nivo Multimode plate reader

[2] = tested on: RAJI (human Burkitt’s lymphoma); assay: MTT cytotoxicity assay, RAJI; assay type: cell-based; settings: for pIC50: Homo sapiens, Raji, 72 h, MTT, 72 h exposure, three independent experiments, read-out: Cytotoxic activity IC50 (95% CI) RAJI; for Selectivity index RAJI: ratio of cytotoxicity L929 / RAJI
Procedure: as §1, §2, §3, §4, §5

[3] = tested on: K-562 (human chronic myeloid leukaemia); assay: MTT cytotoxicity assay, K-562; assay type: cell-based; settings: for pIC50: Homo sapiens, K562, MTT, 72 h exposure, three independent experiments, read-out: Cytotoxic activity IC50 (95% CI) K-562; for Selectivity index K-562: ratio of cytotoxicity L929 / K-562
Procedure: as §1, §2, §3, §4, §5

[4] = tested on: SNB-19 (human astrocytoma); assay: MTT cytotoxicity assay, SNB-19; assay type: cell-based; settings: for pIC50: Homo sapiens, SNB-19, MTT, 72 h exposure, three independent experiments, read-out: Cytotoxic activity IC50 (95% CI) SNB-19; for Selectivity index SNB-19: ratio of cytotoxicity L929 / SNB-19
Procedure: as §1, §2, §3, §4, §5

[5] = tested on: KG1 (human acute myeloid leukaemia); assay: MTT cytotoxicity assay, KG1; assay type: cell-based; settings: for pIC50: Homo sapiens, MTT, 72 h exposure, three independent experiments, read-out: Cytotoxic activity IC50 (95% CI) KG1; for Selectivity index KG1: ratio of cytotoxicity L929 / KG1
Procedure: as §1, §2, §3, §4, §5

[6] = tested on: PC3 (human prostate adenocarcinoma); assay: MTT cytotoxicity assay, PC3; assay type: cell-based; settings: for pIC50: Homo sapiens, MTT, 72 h exposure, three independent experiments, read-out: Cytotoxic activity IC50 (95% CI) PC3; for Selectivity index PC3: ratio of cytotoxicity L929 / PC3
Procedure: as §1, §2, §3, §4, §5

B16 (murine melanoma) = assay: MTT cytotoxicity assay, B16; assay type: cell-based; settings: for pIC50: Mus musculus, MTT, 72 h exposure, three independent experiments, read-out: Cytotoxic activity IC50 (95% CI) B16; for Selectivity index B16: ratio of cytotoxicity L929 / B16
Procedure: as §1, §2, §3, §4, §5

[7] = MTT cytotoxicity assay, L929 control line; assay type: cell-based, mouse; settings: mouse, L929 fibroblast cells (non-tumoral control line), 72 h exposure, read-out: Cytotoxic activity IC50 (95% CI) L929
Procedure: as §1, §2, §3, §4, §5

[8] = tested on: HL60 (human pro-myelocytic leukaemia); assay: MTT cytotoxicity assay, HL60; assay type: cell-based; settings: for pIC50: Homo sapiens, HL-60, 72 h, MTT, 72 h exposure, three independent experiments, read-out: Cytotoxic activity IC50 (95% CI) HL60; for Selectivity index HL60: ratio of cytotoxicity L929 / HL60
Procedure: as §1, §2, §3, §4, §5

[9] = tested on: A549 (human lung carcinoma); assay: MTT cytotoxicity assay, A549; assay type: cell-based; settings: for pIC50: Homo sapiens, A549, MTT, 72 h exposure, three independent experiments, read-out: Cytotoxic activity IC50 (95% CI) A549; for Selectivity index A549: ratio of cytotoxicity L929 / A549
Procedure: as §1, §2, §3, §4, §5

Compound | pIC50 [1] | Selectivity index HCT-116 [1] | pIC50 [2] | Selectivity index RAJI [2] | pIC50 [3] | Selectivity index K-562 [3] | pIC50 [4] | Selectivity index SNB-19 [4] | pIC50 [5] | Selectivity index KG1 [5] | pIC50 [6] | Selectivity index PC3 [6] | pIC50 (B16 (murine melanoma)) | Selectivity index B16 (B16 (murine melanoma)) | IC50 at 72 h [7] [µM] | pIC50 [8] | Selectivity index HL60 [8] | pIC50 [9] | Selectivity index A549 [9]
CC1(C)OC2=C(C(=O)C(=O)c3ccccc32)C1N=[N+]=[N-] (stereo not drawn) [Compound 4, 3-azido-2,2-dimethyl-2,3-dihydronaphtho[1,2-b]furan-4,5-dione] | 5.71 | 1.4 | 5.61 | 1.1 | 5.85 | 1.9 | 5.68 | 1.3 | 5.22 | 0.5 | 5.23 | 0.5 | 5.75 | 1.5 | 2.74 | 5.97 | 2.5 | 5.44 | 0.8
C#CCNC1=CC(=O)c2cccc(OCc3ccccc3)c2C1=O [Compound 18d, 8-benzyloxy-2-(prop-2-yn-1-ylamino)naphthalene-1,4-dione] | < 4.00 | – | < 4.00 | – | < 4.00 | – | < 4.00 | – | < 4.00 | – | < 4.00 | – | 4.45 | 2.8 | > 100 | 4.50 | 3.1 | < 4.00 | –
CC1(C)OC2=C(C(=O)C(=O)c3ccccc32)C1n1cc(CNC2=CC(=O)c3cc4ccccc4cc3C2=O)nn1 (stereo not drawn) [Compound 19e, 3-(4-(((1,4-dioxo-1,4-dihydroanthracen-2-yl)amino)methyl)-1H-1,2,3-triazol-1-yl)-2,2-dimethyl-2,3-dihydronaphtho[1,2-b]furan-4,5-dione] | 5.58 | 1.8 | 5.77 | 2.9 | 5.09 | 0.6 | 5.45 | 1.4 | 5.32 | 1.0 | 5.46 | 1.4 | 5.40 | 1.2 | 4.83 | 6.07 | 5.6 | 5.21 | 0.8
O=C1C(=O)c2ccccc2C2=C1CC(Cn1cc(CNC3=CC(=O)c4c(I)cccc4C3=O)nn1)O2 (stereo not drawn) [Compound 20a, 2-((4-(((5-iodo-1,4-dioxo-1,4-dihydronaphthalen-2-yl)amino)methyl)-1H-1,2,3-triazol-1-yl)methyl)-2,3-dihydronaphtho[1,2-b]furan-4,5-dione] | 5.26 | 1.0 | 5.55 | 2.0 | 5.25 | 1.0 | 5.07 | 0.7 | 4.60 | 0.2 | 5.01 | 0.6 | 5.38 | 1.3 | 5.59 | 5.55 | 2.0 | 4.81 | 0.4
O=C1C(=O)c2ccccc2C2=C1CC(Cn1cc(CNC3=CC(=O)c4c(O)cccc4C3=O)nn1)O2 (stereo not drawn) [Compound 20b, 2-((4-(((5-hydroxy-1,4-dioxo-1,4-dihydronaphthalen-2-yl)amino)methyl)-1H-1,2,3-triazol-1-yl)methyl)-2,3-dihydronaphtho[1,2-b]furan-4,5-dione] | 5.14 | 3.8 | 5.60 | 11.1 | 4.89 | 2.2 | 5.02 | 2.9 | 4.63 | 1.2 | 4.99 | 2.7 | 5.34 | 6.1 | 27.6 | 5.30 | 5.5 | 4.72 | 1.5
COc1cccc2c1C(=O)C(NCc1cn(CC3CC4=C(O3)c3ccccc3C(=O)C4=O)nn1)=CC2=O (stereo not drawn) [Compound 20c, 2-((4-(((8-methoxy-1,4-dioxo-1,4-dihydronaphthalen-2-yl)amino)methyl)-1H-1,2,3-triazol-1-yl)methyl)-2,3-dihydronaphtho[1,2-b]furan-4,5-dione] | < 4.00 | – | 4.43 | 2.7 | < 4.00 | – | 4.30 | 2.0 | 4.40 | 2.5 | < 4.00 | – | 4.36 | 2.3 | > 100 | 4.42 | 2.6 | 4.61 | 4.1
C#CCNC1=CC(=O)c2cc3ccccc3cc2C1=O [Compound 18e, 2-(prop-2-yn-1-ylamino)anthracene-1,4-dione] | < 4.00 | – | < 4.00 | – | < 4.00 | – | < 4.00 | – | < 4.00 | – | < 4.00 | – | < 4.00 | – | > 100 | < 4.00 | – | < 4.00 | –
C#CCNC1=CC(=O)c2c(I)cccc2C1=O [Compound 18a, 5-iodo-2-(prop-2-yn-1-ylamino)naphthalene-1,4-dione] | < 4.00 | – | < 4.00 | – | < 4.00 | – | < 4.00 | – | < 4.00 | – | < 4.00 | – | 4.31 | 2.1 | > 100 | 4.42 | 2.6 | < 4.00 | –

Source: publication PMC10005332, “It Takes Two to Tango, Part II: Synthesis of A-Ring Functionalised Quinones Containing Two Redox-Active Centres with Antitumour Activities” (Molecules, 2023)
